# Data reported in patent US20080213223A1, “Systemic viral/ligand gene delivery system and gene therapy” (SynerGene Therapeutics, Inc., priority 1998, published 2008).
# Key:
# [1] = test system: B16 mouse melanoma lung metastases; assay: B16 mouse melanoma lung metastases model with cisplatin; format: in vivo, C57/BL/6 mice; settings: agent alone
# Description: FIGS. 5A-H. Chemosensitization of B16 mouse lung metastases to cisplatin (CDDP) by systemically delivered, tumor-targeted adenoviral-p53. The metastases were induced in normal, syngeneic C57/Bl/6 mice by the intravenous injection of 1×10^5 cells. Four days later treatment was begun. Tf-Adp53 and control Tf-AdLacZ were produced at the ratio of 1.5×10^5 Tf molecules/virion. 1×10^10 viral particles/mouse/injection (equivalent to 3×10^8 pfu) of either Adp53, Tf-Adp53 or Tf-AdLacZ were i.v. administered 3 times/week to a total of 12-13 doses. CDDP was intraperitoneally injected at 3-5 mg/kg every 2-4 days for a total of 8-13 doses. The lungs were excised from the animals after one round of treatment. Lungs from animal treated with: No treatment (FIGS. 5A and 5E); CDDP alone (FIG. 5B); untargetted Ad-p53 plus CDDP (FIG. 5C); Tf-LacZ plus CDDP (FIG. 5F); Tf-Adp53 alone (FIG. 5G); Tf-Adp53 plus CDDP (FIGS. 5D and 5H).
# The ability of the ligand-targeted, viral p53 delivery system to sensitize tumor cells to chemotherapy in an immune competent animal model was examined. The model chosen for these studies was the B16 mouse melanoma lung metastases model. In multiple experiments, B16 cells were injected, via the tail vein into immune-competent C57/BL/6 mice. In this model, tumor colonies in the lung are easily visible within two-three weeks, due to the expression of melanin by the tumor cells. […]
# [2] = test system: MDA-MB-435 xenograft tumors; assay: MDA-MB-435 xenograft tumor growth with docetaxel (Taxotere); format: in vivo, athymic nude (NCr nu-nu) mice; settings: agent alone
# Description: Additionally, since chemotherapy is often the treatment of choice for breast cancer, this experiment tested the ability of the delivery system of this invention to sensitize established human breast cancer xenograft tumors to the commonly used chemotherapeutic agent docetaxel (Taxotere). Xenografts were induced in 4-6 week old female athymic nude (NCr nu-nu) mice by the subcutaneous injection of 2.5×10^6 MDA-MB-435 cells in the mammary fat pad of each animal. Tumors were allowed to develop to a size of 40-50 mm^3. The targeted adenovirus, designated Tf Adp53, was prepared by mixing transferrin with adenovirus carrying DNA encoding wt p53 as described in Example 1. The animals were divided into five groups: (i) Untreated (−) Taxotere; (ii) Taxotere alone, (iii) Untargeted Adp53 (+) Taxotere; (iv) Targeted Adp53 (−) Taxotere; (v) Targeted Adp53 (+) Taxotere. The mice were i.v. injected, via the tail vein, every three to four days with 5×10^10 pt/mouse/injection of either targeted (an admixture of Tf ligand and virus was injected) or untargeted (no ligand) Adp53. A total of 12 injections were administered. The day after the initial viral injection, drug treatment was started. The animals were given Taxotere i.v. at a dose of 7.5 mg/kg every three or four days to a total of 11 injections. The tumor sizes were measured weekly in a blinded manner on a total of 6-8 tumors/group. […]
SMILES,effect on lung tumor colonies compared to untreated animals [1],effect on tumor growth [2]
"[NH2][Pt]([NH2])([Cl])[Cl] [CDDP, cisplatin]",some effect,
"CC(=O)O[C@@]12CO[C@@H]1C[C@H](O)[C@@]1(C)C(=O)[C@H](O)C3=C(C)[C@@H](OC(=O)[C@H](O)[C@@H](NC(=O)OC(C)(C)C)c4ccccc4)C[C@@](O)([C@@H](OC(=O)c4ccccc4)[C@H]21)C3(C)C [Taxotere, docetaxel]",,some growth inhibition
